# Assay results: the NIST ThermoML archive (doi:10.1021/acs.jced.7b01125)
# ± gives the expanded uncertainty stated by the source.
# Test: xn = mol fraction of the nth substance listed
# Details: Gas, Buoyancy - hydrostatic balance with magnetic suspension - one sinker
compound,measurement,setting,value
[HH] [hydrogen] + C,mass density,"324.96 K, 10000 kPa, x2 = 0.9",58.331 ± 0.044 kg/m3
same,mass density,"324.96 K, 11000 kPa, x2 = 0.4997",36.202 ± 0.047 kg/m3
same,mass density,"324.96 K, 11001 kPa, x2 = 0.9",64.438 ± 0.045 kg/m3
same,mass density,"324.96 K, 12002 kPa, x2 = 0.4997",39.381 ± 0.051 kg/m3
same,mass density,"324.96 K, 12003 kPa, x2 = 0.9",70.531 ± 0.045 kg/m3
same,mass density,"324.96 K, 12999 kPa, x2 = 0.4997",42.522 ± 0.053 kg/m3
same,mass density,"324.96 K, 13002 kPa, x2 = 0.9",76.592 ± 0.046 kg/m3
same,mass density,"324.96 K, 14000 kPa, x2 = 0.4997",45.642 ± 0.056 kg/m3
same,mass density,"324.96 K, 14001 kPa, x2 = 0.9499",88.324 ± 0.048 kg/m3
same,mass density,"324.96 K, 14003 kPa, x2 = 0.9",82.625 ± 0.047 kg/m3
same,mass density,"324.96 K, 14998 kPa, x2 = 0.4997",48.72 ± 0.06 kg/m3
same,mass density,"324.96 K, 15000 kPa, x2 = 0.9",88.578 ± 0.047 kg/m3
same,mass density,"324.96 K, 15003 kPa, x2 = 0.9499",94.801 ± 0.049 kg/m3
same,mass density,"324.96 K, 15999 kPa, x2 = 0.4997",51.775 ± 0.063 kg/m3
same,mass density,"324.96 K, 16001 kPa, x2 = 0.9",94.491 ± 0.048 kg/m3
same,mass density,"324.96 K, 16003 kPa, x2 = 0.9499",101.187 ± 0.05 kg/m3
same,mass density,"324.96 K, 16999 kPa, x2 = 0.4997",54.795 ± 0.066 kg/m3
same,mass density,"324.96 K, 16999 kPa, x2 = 0.9",100.301 ± 0.049 kg/m3
same,mass density,"324.96 K, 17994 kPa, x2 = 0.4997",57.761 ± 0.069 kg/m3
same,mass density,"324.96 K, 18000 kPa, x2 = 0.9499",113.635 ± 0.05 kg/m3
same,mass density,"324.96 K, 18006 kPa, x2 = 0.9",106.065 ± 0.049 kg/m3
same,mass density,"324.96 K, 19001 kPa, x2 = 0.9",111.659 ± 0.051 kg/m3
same,mass density,"324.96 K, 19002 kPa, x2 = 0.4997",60.728 ± 0.072 kg/m3
same,mass density,"324.96 K, 19004 kPa, x2 = 0.9499",119.703 ± 0.051 kg/m3
same,mass density,"324.96 K, 19631 kPa, x2 = 0.4997",62.562 ± 0.075 kg/m3
same,mass density,"324.96 K, 19902 kPa, x2 = 0.9",116.626 ± 0.051 kg/m3
same,mass density,"324.96 K, 19924 kPa, x2 = 0.9499",125.148 ± 0.054 kg/m3
same,mass density,"324.97 K, 999 kPa, x2 = 0.9499",5.733 ± 0.038 kg/m3
same,mass density,"324.97 K, 1999 kPa, x2 = 0.9499",11.594 ± 0.039 kg/m3
same,mass density,"324.97 K, 2985 kPa, x2 = 0.9499",17.488 ± 0.039 kg/m3
same,mass density,"324.97 K, 3998 kPa, x2 = 0.9499",23.665 ± 0.041 kg/m3
same,mass density,"324.97 K, 4999 kPa, x2 = 0.9499",29.867 ± 0.042 kg/m3
same,mass density,"324.97 K, 5999 kPa, x2 = 0.9499",36.165 ± 0.042 kg/m3
same,mass density,"324.97 K, 6999 kPa, x2 = 0.9499",42.544 ± 0.043 kg/m3
same,mass density,"324.97 K, 7999 kPa, x2 = 0.9499",49.004 ± 0.044 kg/m3
same,mass density,"324.97 K, 10000 kPa, x2 = 0.9499",62.076 ± 0.046 kg/m3
same,mass density,"324.97 K, 11004 kPa, x2 = 0.9499",68.681 ± 0.046 kg/m3
same,mass density,"324.97 K, 12002 kPa, x2 = 0.9499",75.249 ± 0.047 kg/m3
same,mass density,"324.97 K, 13002 kPa, x2 = 0.9499",81.811 ± 0.048 kg/m3
same,mass density,"324.97 K, 17001 kPa, x2 = 0.9499",107.464 ± 0.049 kg/m3
same,mass density,"349.95 K, 999 kPa, x2 = 0.9",5.061 ± 0.035 kg/m3
same,mass density,"349.95 K, 999 kPa, x2 = 0.9499",5.309 ± 0.036 kg/m3
same,mass density,"349.95 K, 1003 kPa, x2 = 0.4997",3.109 ± 0.029 kg/m3
same,mass density,"349.95 K, 1999 kPa, x2 = 0.9",10.188 ± 0.035 kg/m3
same,mass density,"349.95 K, 1999 kPa, x2 = 0.9499",10.702 ± 0.033 kg/m3
same,mass density,"349.95 K, 2004 kPa, x2 = 0.4997",6.207 ± 0.029 kg/m3
same,mass density,"349.95 K, 2985 kPa, x2 = 0.9",15.301 ± 0.036 kg/m3
same,mass density,"349.95 K, 2999 kPa, x2 = 0.9499",16.173 ± 0.037 kg/m3
same,mass density,"349.95 K, 3002 kPa, x2 = 0.4997",9.284 ± 0.03 kg/m3
same,mass density,"349.95 K, 3999 kPa, x2 = 0.9",20.614 ± 0.037 kg/m3
same,mass density,"349.95 K, 4000 kPa, x2 = 0.9499",21.712 ± 0.038 kg/m3
same,mass density,"349.95 K, 4004 kPa, x2 = 0.4997",12.364 ± 0.031 kg/m3
same,mass density,"349.95 K, 4999 kPa, x2 = 0.9",25.902 ± 0.038 kg/m3
same,mass density,"349.95 K, 4999 kPa, x2 = 0.9499",27.309 ± 0.039 kg/m3
same,mass density,"349.95 K, 5003 kPa, x2 = 0.4997",15.42 ± 0.032 kg/m3
same,mass density,"349.95 K, 5998 kPa, x2 = 0.9",31.226 ± 0.039 kg/m3
same,mass density,"349.95 K, 5998 kPa, x2 = 0.9499",32.957 ± 0.04 kg/m3
same,mass density,"349.95 K, 6002 kPa, x2 = 0.4997",18.469 ± 0.034 kg/m3
same,mass density,"349.95 K, 6998 kPa, x2 = 0.9",36.584 ± 0.039 kg/m3
same,mass density,"349.95 K, 7000 kPa, x2 = 0.9499",38.671 ± 0.041 kg/m3
same,mass density,"349.95 K, 7001 kPa, x2 = 0.4997",21.49 ± 0.036 kg/m3
same,mass density,"349.95 K, 7998 kPa, x2 = 0.9499",44.399 ± 0.041 kg/m3
same,mass density,"349.95 K, 7999 kPa, x2 = 0.9",41.97 ± 0.04 kg/m3
same,mass density,"349.95 K, 8001 kPa, x2 = 0.4997",24.491 ± 0.037 kg/m3
same,mass density,"349.95 K, 8997 kPa, x2 = 0.9",47.361 ± 0.041 kg/m3
same,mass density,"349.95 K, 8997 kPa, x2 = 0.9499",50.163 ± 0.042 kg/m3
same,mass density,"349.95 K, 9000 kPa, x2 = 0.4997",27.473 ± 0.039 kg/m3
same,mass density,"349.95 K, 9996 kPa, x2 = 0.9499",55.938 ± 0.043 kg/m3
same,mass density,"349.95 K, 9999 kPa, x2 = 0.4997",30.433 ± 0.042 kg/m3
same,mass density,"349.95 K, 10000 kPa, x2 = 0.9",52.782 ± 0.041 kg/m3
same,mass density,"349.95 K, 10999 kPa, x2 = 0.9499",61.741 ± 0.043 kg/m3
same,mass density,"349.95 K, 11000 kPa, x2 = 0.9",58.181 ± 0.042 kg/m3
same,mass density,"349.95 K, 11001 kPa, x2 = 0.4997",33.381 ± 0.044 kg/m3
same,mass density,"349.95 K, 11995 kPa, x2 = 0.4997",36.281 ± 0.046 kg/m3
same,mass density,"349.95 K, 11997 kPa, x2 = 0.9499",67.507 ± 0.044 kg/m3
same,mass density,"349.95 K, 12003 kPa, x2 = 0.9",63.582 ± 0.042 kg/m3
same,mass density,"349.95 K, 12996 kPa, x2 = 0.4997",39.178 ± 0.049 kg/m3
same,mass density,"349.95 K, 12998 kPa, x2 = 0.9499",73.267 ± 0.044 kg/m3
same,mass density,"349.95 K, 13000 kPa, x2 = 0.9",68.93 ± 0.043 kg/m3
same,mass density,"349.95 K, 13993 kPa, x2 = 0.4997",42.035 ± 0.051 kg/m3
same,mass density,"349.95 K, 13994 kPa, x2 = 0.9",74.229 ± 0.044 kg/m3
same,mass density,"349.95 K, 13998 kPa, x2 = 0.9499",78.993 ± 0.044 kg/m3
same,mass density,"349.95 K, 14997 kPa, x2 = 0.9499",84.669 ± 0.045 kg/m3
same,mass density,"349.95 K, 14998 kPa, x2 = 0.9",79.534 ± 0.044 kg/m3
same,mass density,"349.95 K, 15001 kPa, x2 = 0.4997",44.896 ± 0.054 kg/m3
same,mass density,"349.95 K, 15997 kPa, x2 = 0.9",84.764 ± 0.045 kg/m3
same,mass density,"349.95 K, 15998 kPa, x2 = 0.4997",47.697 ± 0.057 kg/m3
same,mass density,"349.95 K, 15998 kPa, x2 = 0.9499",90.284 ± 0.045 kg/m3
same,mass density,"349.95 K, 16997 kPa, x2 = 0.4997",50.454 ± 0.059 kg/m3
same,mass density,"349.95 K, 16998 kPa, x2 = 0.9499",95.842 ± 0.046 kg/m3
same,mass density,"349.95 K, 17000 kPa, x2 = 0.9",89.954 ± 0.045 kg/m3
same,mass density,"349.95 K, 17989 kPa, x2 = 0.4997",53.192 ± 0.059 kg/m3
same,mass density,"349.95 K, 17998 kPa, x2 = 0.9499",101.317 ± 0.047 kg/m3
same,mass density,"349.95 K, 19002 kPa, x2 = 0.4997",55.94 ± 0.066 kg/m3
same,mass density,"349.95 K, 19002 kPa, x2 = 0.9499",106.734 ± 0.047 kg/m3
same,mass density,"349.95 K, 19350 kPa, x2 = 0.9",101.832 ± 0.047 kg/m3
same,mass density,"349.95 K, 19873 kPa, x2 = 0.9499",111.352 ± 0.047 kg/m3
same,mass density,"349.95 K, 19933 kPa, x2 = 0.4997",58.441 ± 0.066 kg/m3
